Measurements: patent US12195427B2, “MASP-2 inhibitors and methods of use” (priority 2018, dated 2025)
Values belong to the compound of their own block, whether it stands above or below them.

Molecular target: MASP-2 CCP2-SP (Homo sapiens (Human), UniProt O00187)
Assay: MASP-2 co-crystallization, X-ray crystallography and structure analysis (H-bonds, van der Waals contacts);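 as to Ligand-pharmacophore element distance, pharmacophore element C2: distance from averaged pharmacophore element to bound ligand; missing value means element absent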;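 as to Ligand-pharmacophore element distance, pharmacophore element C3: distance from averaged pharmacophore element to bound ligand; missing value means element absent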;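 as to Ligand-pharmacophore element distance, pharmacophore element C4: distance from averaged pharmacophore element to bound ligand; missing value means element absent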;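 as to Ligand-pharmacophore element distance, pharmacophore element C5: distance from averaged pharmacophore element to bound ligand; missing value means element absent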
Parameters: van der Waals contact distance, MASP-2 HIS 483 atom CD2 / van der Waals contact distance, MASP-2 HIS 483 atom NE2 / van der Waals contact distance, SER 654 C to compound atom / van der Waals contact distance, SER 654 O to compound atom / van der Waals contact distance, TRP 655 C to compound atom / van der Waals contact distance, MASP-2 GLY 528 atom CA / van der Waals contact distance TRP 655 atom CZ3 / van der Waals contact distance TRP 655 atom N / van der Waals contact distance TRP 655 atom CE3 / van der Waals contact distance GLY 656 atom C / van der Waals contact distance GLY 656 atom CA / van der Waals contact distance GLY 656 atom O / van der Waals contact distance, MASP-2 TYR 607 atom CD1 / van der Waals contact distance, MASP-2 PRO 606 atom O / d(C3,CA1) / d(CA1,N1)2 / d(H4,O1) / d(H4,O2) / d(O1,O2) / d(CA1,O2) / d(CA6,O1) / d(CA6,O2) / d(CA1,C5) / d(O2,H3) / d(N2,C2) / d(CA5,N2) / d(N2,C4) / d(N2,C6) / d(N2,CA3) / d(N2,O3) / d(O4,H2): unit not given beside the values
Details: for Ligand-pharmacophore element distance, pharmacophore element C2 / Ligand-pharmacophore element distance, pharmacophore element C3 / Ligand-pharmacophore element distance, pharmacophore element C4 / Ligand-pharmacophore element distance, pharmacophore element C5 / Ligand-pharmacophore element distance, pharmacophore element C6 / Ligand-pharmacophore element distance, pharmacophore element C7 / Ligand-pharmacophore element distance, pharmacophore element CA1 / Ligand-pharmacophore element distance, pharmacophore element CA2 / Ligand-pharmacophore element distance, pharmacophore element CA3 / Ligand-pharmacophore element distance, pharmacophore element CA4 / Ligand-pharmacophore element distance, pharmacophore element CA5 / Ligand-pharmacophore element distance, pharmacophore element CA6: Table A4-1; for van der Waals contact distance SER 657 atom C: Table A2-14, MASP-2 SER 657 C, columns c12-c13 (inferred)
Method in brief: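 Inhibitor complexes were obtained by soaking crystals of E. coli-expressed human MASP-2 CCP2-SP constructs, then flash-cooling in liquid nitrogen. Structures solved by molecular replacement (1Q3X search model) from synchrotron diffraction; where several poses existed, only one was analyzed, and nonbonded contacts listed can include H-bonds.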

[1] = Table A5-1 pharmacophore: distance between elements, S2/S1 region
[2] = Table A5-2 pharmacophore distance, S3/S4 region
[3] = Table A7-1, between pharmacophore elements of the bound compound
[4] = Table A7-2, between pharmacophore elements of the bound compound

MASP-2 CCP2-SP, sequence (O00187 445-686): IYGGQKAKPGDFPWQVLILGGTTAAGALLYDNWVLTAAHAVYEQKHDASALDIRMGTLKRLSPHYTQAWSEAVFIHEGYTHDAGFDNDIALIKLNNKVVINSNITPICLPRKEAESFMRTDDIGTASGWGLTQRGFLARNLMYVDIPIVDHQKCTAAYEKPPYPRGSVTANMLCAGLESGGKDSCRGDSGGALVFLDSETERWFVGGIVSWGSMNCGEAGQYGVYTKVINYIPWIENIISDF
MASP-2 CCP2-SP, sequence (O00187 364-432 partner): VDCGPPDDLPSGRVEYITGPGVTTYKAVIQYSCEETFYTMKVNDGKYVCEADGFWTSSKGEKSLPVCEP

Structure (SMILES): Cc1nc(N)ccc1CNC(=O)[C@H](C)NC(=O)[C@H]1C[C@@H](c2cccc3ccccc23)CCN1.Cl.Cl [1297_5]
Ligand-pharmacophore element distance, pharmacophore element C2: 0.24
Ligand-pharmacophore element distance, pharmacophore element C3: 0.29
Ligand-pharmacophore element distance, pharmacophore element C4: 0
Ligand-pharmacophore element distance, pharmacophore element C5: 0
Ligand-pharmacophore element distance, pharmacophore element C6: 0
Ligand-pharmacophore element distance, pharmacophore element C7: 0
Ligand-pharmacophore element distance, pharmacophore element CA1: 0.44
Ligand-pharmacophore element distance, pharmacophore element CA2: 0.07
Ligand-pharmacophore element distance, pharmacophore element CA3: 0
Ligand-pharmacophore element distance, pharmacophore element CA4: 1.22
Ligand-pharmacophore element distance, pharmacophore element CA5: 0
Ligand-pharmacophore element distance, pharmacophore element CA6: 0
d(C3,CA1) [1]: 2.86
d(CA1,N1)2 [1]: 1.38
d(CA1,O1) [1]: 4.59
d(CA1,O2) [1]: 3.88
d(H4,O1) [1]: 4.56
d(H4,O2) [1]: 3.82
d(O1,O2) [1]: 3.43
d(N2,C2) [2]: 1.43
d(N2,CA2) [2]: 5.69
d(O2,H3) [2]: 4.06
d(O2,N2) [2]: 2.67
a(C3, CA1, O1) (Table A6-1 pharmacophore angle): 150.41
a(CA1, O1, O2) (Table A6-1 pharmacophore angle): 102.43
a(O1, O2, H4) (Table A6-1 pharmacophore angle): 132.64
a(N1, CA1, O1) b) (Table A6-1 pharmacophore angle, Methyl-amino-pyridine compounds): 174.11
a(O1, O2, H3) (Table A6-2 pharmacophore angle): 146.79
a(O1, O2, N2) (Table A6-2 pharmacophore angle): 147.10
a(O2, N2, C2) (Table A6-2 pharmacophore angle): 132.77
a(O2, N2, CA2) (Table A6-2 pharmacophore angle): 157.05
Pharmacophore torsion angle a(C3, CA1, O1, H4) [3]: 30.12
Pharmacophore torsion angle a(H4, O1, O2, H3) [3]: 47.86
Pharmacophore torsion angle a(H4, O1, O2, N2) [3]: 144.38
Pharmacophore torsion angle a(N1, CA1, O1, H4) [3]: 10.41
Pharmacophore torsion angle a(O1, H4, O2, CA1) [3]: −86.41
Pharmacophore torsion angle a(O1, O2, N2, C2) [3]: 111.81
Pharmacophore torsion angle a(O1, O2, N2, CA2) [4]: 122.50
Pharmacophore torsion angle a(O1, O2, N2, CA4) [4]: 101.00

Structure (SMILES): C[C@H](NC(=O)[C@@H](CCc1ccccc1)NCCCc1ccc(O)cc1)C(=O)NCc1ccc(C(=N)N)cc1.Cl.Cl [1145_B]
Ligand-pharmacophore element distance, pharmacophore element C2: 0
Ligand-pharmacophore element distance, pharmacophore element C3: 0
Ligand-pharmacophore element distance, pharmacophore element C4: 0
Ligand-pharmacophore element distance, pharmacophore element C5: 0
Ligand-pharmacophore element distance, pharmacophore element C6: 0
Ligand-pharmacophore element distance, pharmacophore element C7: 0
Ligand-pharmacophore element distance, pharmacophore element CA1: 0.47
Ligand-pharmacophore element distance, pharmacophore element CA2: 0.41
Ligand-pharmacophore element distance, pharmacophore element CA3: 1.22
Ligand-pharmacophore element distance, pharmacophore element CA4: 0
Ligand-pharmacophore element distance, pharmacophore element CA5: 0
Ligand-pharmacophore element distance, pharmacophore element CA6: 0
d(CA1,N1) [1]: 3.54
d(CA1,O1) [1]: 4.42
d(CA1,O2) [1]: 4.42
d(H4,O1) [1]: 4.89
d(H4,O2) [1]: 4.48
d(O1,O2) [1]: 3.28
d(N2,CA2) [2]: 5.91
d(N2,CA3) [2]: 5.59
d(N2,H1) [2]: 8.68
d(N2,O3) [2]: 7.97
d(O2,H3) [2]: 5.36
d(O2,N2) [2]: 2.77
a(CA1, O1, O2) (Table A6-1 pharmacophore angle): 111.73
a(O1, O2, H4) (Table A6-1 pharmacophore angle): 139.31
A(N1, CA1, O1) a) (Table A6-1 pharmacophore angle, all compounds with protonatable center N1 except Methyl-amino-pyridine): 162.28
a(O1, O2, H3) (Table A6-2 pharmacophore angle): 150.25
a(O1, O2, N2) (Table A6-2 pharmacophore angle): 136.24
a(O2, N2, CA2) (Table A6-2 pharmacophore angle): 153.28
a(O2, N2, CA3) (Table A6-2 pharmacophore angle): 161.48
a(O2, N2, H1) (Table A6-2 pharmacophore angle): 168.66
a(O2, N2, O3) (Table A6-2 pharmacophore angle): 168.41
Pharmacophore torsion angle a(H4, O1, O2, H3) [3]: 48.71
Pharmacophore torsion angle a(H4, O1, O2, N2) [3]: 124.15
Pharmacophore torsion angle a(N1, CA1, O2, H4) [3]: −128.41
Pharmacophore torsion angle a(O1, H4, O2, CA1) [3]: −59.90
Pharmacophore torsion angle a(O1, O2, N2, CA2) [4]: 140.87
Pharmacophore torsion angle a(O1, O2, N2, CA3) [4]: −15.65
Pharmacophore torsion angle a(O1, O2, N2, H1) [4]: −15.97
Pharmacophore torsion angle a(O1, O2, N2, O3) [4]: −10.98

H-bond distance to MASP-2 SER 628 atom OG (Table A1 (H-Bonds), SER 628 OG): 2.75
H-bond distance to MASP-2 SER 657 atom O (Table A1 (H-Bonds), SER 657 O): 2.84
van der Waals contact distance, MASP-2 TYR 607 atom CD2 (Table A2-4): 3.72
van der Waals contact distance, MASP-2 amino acid atom to compound atom (Table A2-5: TYR 607 (CE1, CE2, OH), PRO 608 (CD, CG), SER 611 (CA)): 3.67
van der Waals contact distance, MASP-2 amino acid atom to compound atom (Table A2-9, ARG 630, AA atoms CG, CZ): 3.8
van der Waals contact distance GLY 656 atom C (Table A2-13, MASP-2 GLY 656 C): 3.42
van der Waals contact distance TRP 655 atom CE3 (Table A2-13, MASP-2 TRP 655 CE3, compound atom in line below): 3.75
van der Waals contact distance TRP 655 atom O (Table A2-13, MASP-2 TRP 655 O): 3.39
van der Waals contact distance SER 657 atom C: 3.77
van der Waals contact distance SER 657 atom C (listed as Melagatran): 3.68
Structure (SMILES): N=C(N)c1ccc(CNC(=O)[C@@H]2CCN2C(=O)[C@H](NCC(=O)O)C2CCCCC2)cc1 [melagatran, reference compound]
